Structures are written as SMILES. ≈ marks a conversion by molar mass, not a printed value. Like-named read-outs stand apart in the source and are kept apart here.

As a reminder, the MIC is the least concentration at which growth counts as inhibited. As a reminder, the IC50 is the concentration that inhibits the measured activity by half. The term half-life denotes how long it takes for the measured level to halve. Lower therefore signals fast loss.

In data set [1] the test system is Mycobacterium tuberculosis H37Rv. Description: Alamar blue metabolic readout assay. It is filed as cell-based. As to conditions: for GAS MIC: M. tuberculosis H37Rv, GAS media; for MIC: Mycobacterium tuberculosis, H37RV, read-out: GAS MIC. For orientation: Resazurin is reduced to fluorescent resorufin, in cell work by metabolically active cells.
Data set [2] shares this test system. The experiment in a line: Alamar blue metabolic readout assay. It is filed as cell-based. As to conditions: for MIC: Mycobacterium tuberculosis, H37RV, read-out: 7H12 MIC.
The test system is the same in data set [3]. The experiment in a line: Low oxygen recovery assay. It is filed as cell-based. As to conditions: for MIC: Mycobacterium tuberculosis, H37RV, read-out: LORA MIC.
Data set [4] concerns VERO cells (kidney epithelial cells). The experiment in a line: Toxicity against VERO cells. It is filed as cell-based. As to conditions: Chlorocebus sabaeus, Vero, read-out: Vero IC50, toxicity against Vero cells.
The conditions of data set [5]: mouse, microsomes.
For data set [6] the following is noted: microsomes.
The conditions of data set [7]: human, microsomes.
The conditions of data set [8]: rat, microsomes.
The conditions of data set [9]: dog, microsomes.
A short description of data set [10]: in vitro. As to conditions: mouse, microsomes, pH 7.4.
Data set [11] in a line: in vitro. As to conditions: monkey, microsomes, pH 7.4.
Data set [12] in a line: in vitro. As to conditions: human, microsomes, pH 7.4.
Data set [13] in a line: in vitro. As to conditions: rat, microsomes, pH 7.4.
Data set [14] can be described thus: in vitro. As to conditions: dog, microsomes, pH 7.4.
Data set [15] in a line: Microsomal stability assay, mouse. As to conditions: mouse hepatic microsomes.
Data set [16] can be described thus: Microsomal stability assay, human. As to conditions: human hepatic microsomes.
Data set [17] can be described thus: Microsomal stability assay, marmoset. As to conditions: marmoset hepatic microsomes.

Regarding `[2H]c1c(C([2H])([2H])[2H])c([2H])n2c(C(=O)NCc3ccc(C(F)(F)F)cc3)c(C)nc2c1[2H]` [Compound 30, 2-Methyl-6-(methyl-d3)-N-(4-(trifluoromethyl)benzyl)imidazo [1,2-a]pyridine-5,7,8-d3-3-carboxamide], the “GAS MIC” value in data set [1] was 9.1 ± 5.8 nM. Further, the results for the minimal inhibitory concentration (MIC) in data set [1], in data set [2] and in data set [3] were 9.1 nM (≈ 3.22 ng/mL), 3.8 ± 1.3 nM (≈ 1.34 ng/mL) and above 10000 nM, respectively. Further, in [4], the concentration for half-maximal inhibition (IC50) was above 50 µM. For the same compound, the CLint in data set [5] was 70 ml/min/g protein; in data set [6], 116 ml/min/g protein; in [7], 26 ml/min/g protein; in [8], 28 mL/min/g protein; in data set [9], 64 mL/min/g protein. Moreover, the half-life at 2 μM in the data set “in vitro [10]” worked out at 20 min; in “in vitro [11]”, 12 min; in “in vitro [12]”, 53 min; in the data set “in vitro [13]” it was 50 min; in the data set “in vitro [14]”, 22 min.
As for `[2H]c1c(C([2H])([2H])[2H])cn2c(C(=O)NCc3ccc(C(F)(F)F)cc3)c(C([2H])([2H])[2H])nc2c1[2H]` [Compound 55, 2,6-Bis(methyl-d3)-N-(4-(trifluoromethyl)benzyl)imidazo[1,2-a] pyridine-7,8-d2-3-carboxamide], the MIC in [1] was 9.6 ± 2.6 nM (≈ 3.41 ng/mL); in data set [2] it was 4.9 ± 1.3 nM (≈ 1.74 ng/mL); in data set [3], above 10000 nM. For the same compound, the IC50 in data set [4] is above 50 µM. The figures for the CLint in [5], in [6] and in data set [7] were 42 ml/min/g protein, 98 ml/min/g protein and 38 ml/min/g protein, respectively. In addition, the values for the half-life at 2 μM in “in vitro [10]”, in “in vitro [11]” and in the data set “in vitro [12]” were 33 min, 14 min and 36 min, respectively.
As to `[2H]c1c(C([2H])([2H])[2H])cn2c(C(=O)NC([2H])([2H])c3ccc(C(F)(F)F)cc3)c(C([2H])([2H])[2H])nc2c1[2H]` [Compound 57, 2,6-Bis(Methyl-d3)-N-((4-(trifluoromethyl)phenyl)methyl-d2) imidazo[1,2-a]pyridine-7,8-d2-3-carboxamide], the “GAS MIC” value in [1] is reported as 5.7 ± 1.2 nM. Moreover, the “7H12 MIC” value in [2] (M. tuberculosis H37Rv, 7H12 media) amounted to 6.7 ± 0.9 nM. Also, the “LORA MIC” value in data set [3] (M. tuberculosis H37Rv, low oxygen "latent" conditions) is recorded as >10,000 nM. For the same compound, the figures for the CLint in [15], in data set [16] and in [17] were 78 ml/min/g protein, 32 ml/min/g protein and 60 ml/min/g protein, respectively. The Half-life is 43 min in data set [16] (2 μM compound, 0.5 mg/mL) and 23 min in data set [17] (2 μM compound, 0.5 mg/mL).
